Test results as given in patent US8178658B2 (Dow AgroSciences, LLC, priority 2008, dated 2012).

Assays:
[1] = test system: beet armyworm (BAW; Spodoptera exigua: Lepidoptera); assay: 96-well microtiter plate-based high throughput (HTS) diet bioassay on beet armyworm (BAW HTS); format: in vivo; details: BAW eggs, 12 μg test compound per well, mortality at 6 d post-treatment, mortality class
Summary of the method: (§1)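 Percent larval mortality after six days was the endpoint. Higher-throughput plates used eggs, 12 μg compound per well and 29° C darkness; trays used second instar larvae, a 50 μg/cm^2 dose and 25° C with 14:10 light cycle.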

[2] = test system: beet armyworm (BAW; Spodoptera exigua: Lepidoptera); assay: 128-well diet tray assay on beet armyworm (BAW 50); format: in vivo; details: 128-well diet tray assay; 50 μg/cm^2 of test compound on diet; second instar BAW larvae; mortality class
Summary of the method: as §1

[3] = 96-well microtiter plate HTS diet assay

Row | SMILES | BAW HTS ([1]; 96-well HTS diet assay) | BAW HTS [1, 3] | BAW 50 ug/cm2 [2]
1 | COC1C(C)OC(ON=Cc2ccc(-c3ccnc(-c4ccc(OC(F)(F)F)cc4)n3)cc2)C(OC)C1OC (stereo not drawn) [Compound 139] | A (the compound was tested and at least 50 percent mortality was observed) | A (the compound was tested and at least 50 percent mortality was observed) | A (the compound was tested and at least 50 percent mortality was observed)
2 | COC1C(C)OC(ON=Cc2ccc(-c3cc(-c4ccc(OC(F)(F)F)cc4)ncn3)cc2)C(OC)C1OC (stereo not drawn) [Compound 140] | B (either (1) the compound was tested and less than 50 percent mortality was observed or (2) the compound was not tested) | B (either (1) the compound was tested and less than 50 percent mortality was observed or (2) the compound was not tested) | A (the compound was tested and at least 50 percent mortality was observed)
3 | CO[C@@H]1[C@@H](OC)[C@H](C)O[C@@H](O/N=C/c2ccc(-c3ncc(-c4ccc(OC(F)(F)C(F)(F)F)cc4)cn3)cc2)[C@@H]1OC [Compound 141] | A (the compound was tested and at least 50 percent mortality was observed) | A (the compound was tested and at least 50 percent mortality was observed) | A (the compound was tested and at least 50 percent mortality was observed)
4 | CCOC1C(OC)C(C)OC(ON=Cc2ccc(-c3ncc(-c4ccc(OC(F)(F)C(F)(F)F)cc4)cn3)cc2)C1OC (stereo not drawn) [Compound 142] | A (the compound was tested and at least 50 percent mortality was observed) | A (the compound was tested and at least 50 percent mortality was observed) | A (the compound was tested and at least 50 percent mortality was observed)
5 | CCOC1C(OC)C(C)OC(ON=Cc2ccc(-c3ncc(-c4cccc(OC(F)(F)F)c4)cn3)cc2)C1OC (stereo not drawn) [Compound 143] | B (either (1) the compound was tested and less than 50 percent mortality was observed or (2) the compound was not tested) | B (either (1) the compound was tested and less than 50 percent mortality was observed or (2) the compound was not tested) | A (the compound was tested and at least 50 percent mortality was observed)
6 | CCCOC1C(OC)C(C)OC(ON=Cc2ccc(-c3ncc(-c4ccc(OC(F)(F)F)cc4)cn3)cc2)C1OC (stereo not drawn) [Compound 144] | B (either (1) the compound was tested and less than 50 percent mortality was observed or (2) the compound was not tested) | B (either (1) the compound was tested and less than 50 percent mortality was observed or (2) the compound was not tested) | A (the compound was tested and at least 50 percent mortality was observed)
7 | CCOC1C(OC)C(C)OC(ON=Cc2cccc(-c3ncc(-c4ccc(OC(F)(F)F)cc4)cn3)c2)C1OC (stereo not drawn) [Compound 146] | B (either (1) the compound was tested and less than 50 percent mortality was observed or (2) the compound was not tested) | B (either (1) the compound was tested and less than 50 percent mortality was observed or (2) the compound was not tested) | A (the compound was tested and at least 50 percent mortality was observed)
8 | CCOC1C(OC)C(C)OC(ON=Cc2cccc(-c3ncc(-c4ccccc4OC(F)(F)F)cn3)c2)C1OC (stereo not drawn) [Compound 147] | B (either (1) the compound was tested and less than 50 percent mortality was observed or (2) the compound was not tested) | B (either (1) the compound was tested and less than 50 percent mortality was observed or (2) the compound was not tested) | B (either (1) the compound was tested and less than 50 percent mortality was observed or (2) the compound was not tested)
9 | CCOC1C(OC)C(C)OC(ON=Cc2ccc(-c3ncc(-c4ccc(OC(F)(F)F)cc4)cn3)cc2F)C1OC (stereo not drawn) [Compound 148] | B (either (1) the compound was tested and less than 50 percent mortality was observed or (2) the compound was not tested) | B (either (1) the compound was tested and less than 50 percent mortality was observed or (2) the compound was not tested) | A (the compound was tested and at least 50 percent mortality was observed)
10 | CCOC1C(OC)C(C)OC(ON=Cc2cccc(-c3ncc(-c4cccc(OC(F)(F)F)c4)cn3)c2)C1OC (stereo not drawn) [Compound 149] | B (either (1) the compound was tested and less than 50 percent mortality was observed or (2) the compound was not tested) | B (either (1) the compound was tested and less than 50 percent mortality was observed or (2) the compound was not tested) | A (the compound was tested and at least 50 percent mortality was observed)
11 | CCOC1C(OC)C(C)OC(ON=Cc2ccc(-c3ncc(-c4ccc(C)cc4)cn3)cc2)C1OC (stereo not drawn) [Compound 150] | B (either (1) the compound was tested and less than 50 percent mortality was observed or (2) the compound was not tested) | B (either (1) the compound was tested and less than 50 percent mortality was observed or (2) the compound was not tested) | B (either (1) the compound was tested and less than 50 percent mortality was observed or (2) the compound was not tested)
12 | CCOC1C(OC)C(C)OC(ON=Cc2ccc(-c3ncc(-c4ccc(C(F)(F)F)cc4)cn3)cc2)C1OC (stereo not drawn) [Compound 151] | B (either (1) the compound was tested and less than 50 percent mortality was observed or (2) the compound was not tested) | B (either (1) the compound was tested and less than 50 percent mortality was observed or (2) the compound was not tested) | A (the compound was tested and at least 50 percent mortality was observed)
13 | CCOC1C(OC)C(C)OC(ON=Cc2ccc(-c3ncc(-c4ccccc4C)cn3)cc2)C1OC (stereo not drawn) [Compound 152] | B (either (1) the compound was tested and less than 50 percent mortality was observed or (2) the compound was not tested) | B (either (1) the compound was tested and less than 50 percent mortality was observed or (2) the compound was not tested) | A (the compound was tested and at least 50 percent mortality was observed)
14 | CCOC1C(OC)C(C)OC(ON=Cc2ccc(-c3ncc(-c4ccc(F)cc4)cn3)cc2)C1OC (stereo not drawn) [Compound 153] | B (either (1) the compound was tested and less than 50 percent mortality was observed or (2) the compound was not tested) | B (either (1) the compound was tested and less than 50 percent mortality was observed or (2) the compound was not tested) | A (the compound was tested and at least 50 percent mortality was observed)
15 | CCOC1C(OC)C(C)OC(ON=Cc2ccc(-c3ncc(-c4ccc(C#N)cc4)cn3)cc2)C1OC (stereo not drawn) [Compound 154] | B (either (1) the compound was tested and less than 50 percent mortality was observed or (2) the compound was not tested) | B (either (1) the compound was tested and less than 50 percent mortality was observed or (2) the compound was not tested) | A (the compound was tested and at least 50 percent mortality was observed)
16 | CCOC1C(OC)C(C)OC(ON=Cc2ccc(-c3ncc(-c4ccccc4OC(F)(F)F)cn3)cc2)C1OC (stereo not drawn) [Compound 156] | B (either (1) the compound was tested and less than 50 percent mortality was observed or (2) the compound was not tested) | B (either (1) the compound was tested and less than 50 percent mortality was observed or (2) the compound was not tested) | A (the compound was tested and at least 50 percent mortality was observed)
17 | COC1C(C)OC(ON=Cc2ccc(-c3ncnc(-c4ccc(C(F)(F)F)cc4)n3)cc2)C(OC)C1OC (stereo not drawn) [Compound 157] | A (the compound was tested and at least 50 percent mortality was observed) | A (the compound was tested and at least 50 percent mortality was observed) | B (either (1) the compound was tested and less than 50 percent mortality was observed or (2) the compound was not tested)
18 | COC1C(C)OC(ON=Cc2ccc(-c3ncnc(-c4ccc(OC(F)(F)F)cc4)n3)cc2)C(OC)C1OC (stereo not drawn) [Compound 158] | A (the compound was tested and at least 50 percent mortality was observed) | A (the compound was tested and at least 50 percent mortality was observed) | A (the compound was tested and at least 50 percent mortality was observed)
19 | COC1C(C)OC(ON=Cc2ccc(-c3cncc(-c4ccc(OC(F)(F)F)cc4)n3)cc2)C(OC)C1OC (stereo not drawn) [Compound 159] | A (the compound was tested and at least 50 percent mortality was observed) | A (the compound was tested and at least 50 percent mortality was observed) | A (the compound was tested and at least 50 percent mortality was observed)
20 | CCOC1C(OC)C(C)OC(ON=Cc2ccc(N3CCN(c4ccc(OC(F)(F)F)cc4)CC3)nc2)C1OC (stereo not drawn) [Compound 160] | A (the compound was tested and at least 50 percent mortality was observed) | A (the compound was tested and at least 50 percent mortality was observed) | A (the compound was tested and at least 50 percent mortality was observed)
21 | CCOC1C(OC)C(C)OC(ON=Cc2ccc(N3CCN(c4ccc(C(F)(F)F)cn4)CC3)cc2)C1OC (stereo not drawn) [Compound 161] | A (the compound was tested and at least 50 percent mortality was observed) | A (the compound was tested and at least 50 percent mortality was observed) | A (the compound was tested and at least 50 percent mortality was observed)
22 | CCCOC1C(OC)C(C)OC(ON=Cc2ccc(N3CCN(c4ccc(OC(F)(F)F)cc4)CC3)cc2)C1OC (stereo not drawn) [Compound 162] | B (either (1) the compound was tested and less than 50 percent mortality was observed or (2) the compound was not tested) | B (either (1) the compound was tested and less than 50 percent mortality was observed or (2) the compound was not tested) | A (the compound was tested and at least 50 percent mortality was observed)
